Test system: monoclonal human anti-DNP antibody (mAb)
Assay: BLI covalent labeling kinetics assay on IgG Fc capture probes, mAb
Type: binding
Protocol: Kinetic assays to characterize the second order rate constant (kinact/KI) describing the CIR+Ab labeling reaction involved incubating increasing concentrations of CIR 3 or CIR 5 with a fixed concentration (75 nM) of anti-DNP mmAb in solution, for different periods of time. PSMA binding to CIR-Ab complexes increases the total mass associated with the probe surface leading to signal increases (nm shift). CIR 3 (500 nM) and 75 nM of either mmAb or mAb (AcroBiosystems Catalog #DNP-M2) was reacted in 1× Kinetics Buffer (ForteBio) for four hours prior to the experiment. IgG Fc capture (ProG) probes from ForteBio were placed in 1× Kinetics Buffer for 20 minutes prior to the experiment for wetting. The experiment was conducted using an Octet Red96 (ForteBio), where the acquisition rate was set to 5 Hz and the temperature was held at 25° C. The plate shaker setting was 1000 RPM. A volume of 250 μL of each solution was loaded onto a black flat-bottom 96-well plate (Grenier). The experiment began by placing the ProG probes in 1×Kinetics Buffer for four minutes to establish a baseline. Next, the probes were placed into the CIR 3 and anti-DNP antibody reaction mixture to load the covalent complex (CIR-Ab) onto the probe. Next, the probes were placed in a solution of 5 mM DNP-glycine competitor in 1×Kinetics Buffer in order to disrupt any non-covalent or non-specific binding. The baseline was re-established by then placing the probes in 1× Kinetics Buffer for 0.5 minutes. To measure PSMA association, the probes were placed in a solution of 500 nM human PSMA protein in 1× Kinetics Buffer for 10 minutes. The probes were then placed in 1×Kinetics Buffer for 10 minutes to measure dissociation. The raw nm shift signal for the association and dissociation step obtained by the Octet Red96 was first baselined to the beginning of the association step (t=0 second) by subtracting the association signal at t=0 from the measured signal at each time point. The Kd was determined by fitting both the association and dissociation curves using the ‘association then dissociation’ binding model in GraphPad Prism 8. The experiment was repeated once for a total of two replicates.
The specific labelling of an antibody by a CIR occurs via a two-step mechanism. In the first step, the CIR binds to the antibody via its ABD and forms a reversible complex. […] This second order rate constant was determined by monitoring covalent product (CIR-Ab) formation as a function of time via BLI using IgG Fc capture probes (note: a non-specific labeling reaction occurs independent of binding to the DNP binding site with any biological nucleophile and follows second order kinetics without saturation). […]

SMILES: O=C(O)CC[C@H](NC(=O)N[C@@H](CCCCNC(=O)NCCOCCOCCOCCOCCOCCOCCOCCOC(=O)n1cnc(CCNC(=O)CNc2ccc([N+](=O)[O-])cc2[N+](=O)[O-])c1)C(=O)O)C(=O)O [CIR 3]
- covalent labeling of anti-DNP mAb (75 nM mAb, 500 nM CIR 3): selectively covalently modify mAb albeit with modestly slower kinetics
- Kinact/Kl ^c (mAb): 1730 ± 1040 M⁻¹ s⁻¹
- Kinact^c (mAb, 75 nM antibody): 2.0 × 10^−4 ± 0 s^−1
- Ki (mAb, read-out: Kl ^c): 160 ± 70 nM

— patent US11827624B2, “Covalent immune recruiter compounds for immune cell recognition and associated uses” (McMaster University, priority 2020, dated 2023)
